Results taken from ChEMBL document CHEMBL3886836, “Amides as pim inhibitors” (2016).

Tests used:
[1] = molecular target: T1, Serine/threonine-protein kinase pim-2 (Homo sapiens, UniProt Q9P1W9); test: Homogeneous Time Resolved Fluorescence Assay (HTRF): The assay for the determination of Pim activity is based on the formation of phosphorylated biotinylated-BAD peptide at the Serine 112 residue (S112) and employs HTRF® (homogeneous time resolved fluorescence) technology to detect the product in a 384-well plate format. The phosphorylation of biotinylated-BAD (S112) peptide by full length recombinant Pim-1, Pim-2, or Pim-3 protein was detected with streptavidin:Allophycocyanin (APC) conjugate and a europium (Eu) labeled antibody directed against phosphorylated-BAD (S112). Excitation of Eu by a high energy laser light (337 nm) leads to a transfer of energy to the APC molecule, and results in an emission at 665 nm. The fluorescence is directly proportional to the amount of phosphorylated BAD peptide present in the reaction. […] A reference compound was included on each assay plate [Costar 3658] in order to validate that plate; on one plate of every assay run, two additional reference compounds were included. The Reaction Buffer consisted of 45 mM Hepes, pH 7.0, 15 mM NaCl, and 1 mM MgCl. The quench/detection buffer consisted of 50 mM Tris, 100 mM NaCl, 0.05% BSA, 0.1% Tween and 3 mM EDTA. Biotinylated BAD peptide (Biopeptide), 10 mM ATP (Sigma), Labeled p-BAD (S112) mAb (Cell Signalling and Perkin Elmer) [with 0.05% BSA and 2 mM DTT added] streptavidin:Allophycocyanin [Perkin Elmer]. Final concentrations either Pim-1 enzyme [5 pM], or Pim-2 enzyme [0.5 pM], DMSO [1%], BLC BAD (S112) [0.5 μM], ATP [1.5 μM], streptavidin:Allophycocyanin [0.002 mg/mL] and biotinylated-BAD (S112) mAb [100 pM]. Initial incubations were carried out at RT (22° C.) for 30 min for both Pim-1 and for Pim-2. Pim enzyme is added to compound in buffer, and plates are incubated of 30 min. Biotinylated BAD and ATP are added and plates are incubated for 1 h. A mixture of labeled p-BAD (S112) mAb and quench/detection buffer are added and incubated for 2 h. Fluorescence was measured by an HTRF® Envision microplate reader.
[2] = molecular target: T2, Serine/threonine-protein kinase pim-1 (Homo sapiens, UniProt P11309); test: The phosphorylation of biotinylated-BAD (S112) peptide by full length recombinant Pim-1, Pim-2, or Pim-3 protein was detected with streptavidin:Allophycocyanin (APC) conjugate and a europium (Eu) labeled antibody directed against phosphorylated-BAD (S112). […] The fluorescence is directly proportional to the amount of phosphorylated BAD peptide present in the reaction. […] The Reaction Buffer consisted of 45 mM Hepes, pH 7.0, 15 mM NaCl, and 1 mM MgCl. The quench/detection buffer consisted of 50 mM Tris, 100 mM NaCl, 0.05% BSA, 0.1% Tween and 3 mM EDTA. Biotinylated BAD peptide (Biopeptide), 10 mM ATP (Sigma), Labeled p-BAD (S112) mAb (Cell Signalling and Perkin Elmer) [with 0.05% BSA and 2 mM DTT added] streptavidin:Allophycocyanin [Perkin Elmer]. […] Initial incubations were carried out at RT (22° C.) for 30 min for both Pim-1 and for Pim-2. Pim enzyme is added to compound in buffer, and plates are incubated of 30 min. Biotinylated BAD and ATP are added and plates are incubated for 1 h. A mixture of labeled p-BAD (S112) mAb and quench/detection buffer are added and incubated for 2 h. Fluorescence was measured by an HTRF® Envision microplate reader.
[3] = molecular target: T1, Serine/threonine-protein kinase pim-2; test: (§1) Homogeneous Time Resolved Fluorescence Assay (HTRF): The assay for the determination of Pim activity is based on the formation of phosphorylated biotinylated-BAD peptide at the Serine 112 residue (S112) and employs HTRF® (homogeneous time resolved fluorescence) technology to detect the product in a 96-well plate format. The phosphorylation of biotinylated-BAD (S112) peptide by full length recombinant Pim-1, Pim-2, or Pim-3 protein was detected with streptavidin:Allophycocyanin (APC) conjugate and a europium (Eu) labeled antibody directed against phosphorylated-BAD (S112). Excitation of Eu by a high energy laser light (337 nm) leads to a transfer of energy to the APC molecule, and results in an emission at 665 nm. The fluorescence is directly proportional to the amount of phosphorylated BAD peptide present in the reaction. […] A reference compound was included on each assay plate in order to validate that plate; on one plate of every assay run, two additional reference compounds were included. The final buffer conditions were as follows: 60 mM Hepes, pH 7.0, 0.05% BSA, 2 mM DTT. Incubations were carried out at RT (22° C.) for 2 h for Pim-1, 1 hour and 30 min for Pim-3, and 45 min for Pim-2. The reaction was stopped by the addition of 3 mM EDTA, and fluorescence was measured by an HTRF® Rubystar microplate reader.
[4] = molecular target: T2, Serine/threonine-protein kinase pim-1; test: as §1

SMILES	IC50 [1]	IC50 [2]	IC50 [3]	IC50 [4]
Cc1nc2cccc(-c3cc4c([nH]3)CCNC4=O)c2nc1-c1cnccc1Cl	–	50.7 nM	–	–
Cc1nc2cccc(-c3cc4c([nH]3)CCNC4=O)c2nc1N[C@H]1C[C@@H](NCC(F)F)C1	2 nM	2 nM	–	–
Cc1nc2cccc(-c3cc4c([nH]3)C(CO)NC4=O)c2nc1NC(C)(C)C (racemic)	2.16 nM	2.32 nM	–	–
Cc1nc2cccc(-c3cc4c([nH]3)CCNC4=O)c2nc1NC(C)(C)CCS(C)(=O)=O	98.6 nM	232 nM	–	–
Cc1nc2cccc(-c3cc4c([nH]3)CCNC4=O)c2nc1-c1cccnc1Cl	187 nM	98.5 nM	–	–
CC1(C)CCCN1c1cnc2cccc(-c3cc4c([nH]3)CCNC4=O)c2n1	0.8 nM	0.3 nM	–	–
Cc1nc2cccc(-c3cc4c([nH]3)CCN/C4=N/O)c2nc1NC(C)(C)C	12 nM	9 nM	–	–
O=C1NCCc2[nH]c(-c3cccc4ccc(N[C@H]5CC[C@H](O)CC5)nc34)cc21	–	–	57.2 nM	7 nM
Cc1nc2cccc(-c3cc4c([nH]3)CCNC4=O)c2nc1N[C@H]1C[C@@H](N(C)C)C1	4 nM	2 nM	–	–
Cc1nc2cccc(-c3cc4c([nH]3)CCNC4=O)c2nc1N[C@H]1C[C@@H](N2CCOCC2)C1	–	6 nM	–	–
Cc1nc2cccc(-c3cc4c([nH]3)CCNC4=O)c2nc1-c1ccc(N)cc1Cl	33.4 nM	10.3 nM	–	–
CC(C)(C)Nc1ccc2cccc(-c3cc4c([nH]3)CCNC4=O)c2n1	1.11 nM	0.434 nM	–	–

Further lines, results first:

IC50 [1]	IC50 [2]	IC50 [3]	IC50 [4]	SMILES
1.8 nM	1.2 nM	–	–	Cc1nc2cccc(-c3cc4c([nH]3)CCNC4=O)c2nc1NC(C)C(C)C (racemic)
1.8 nM	2 nM	–	–	Nc1nc2cccc(-c3cc4c([nH]3)CCNC4=O)c2nc1Oc1ccccc1
0.8 nM	0.4 nM	–	–	CC1(C)CCN1c1cnc2cccc(-c3cc4c([nH]3)CCNC4=O)c2n1
7.8 nM	10.3 nM	–	–	Cc1nc2cccc(-c3cc4c(n3C)C(CO)NC4=O)c2nc1NC(C)(C)C (racemic)
–	6.04 nM	–	–	Cc1nc2cccc(-c3cc4c([nH]3)CCNC4=O)c2nc1-c1c(F)cccc1Cl
0.193 nM	–	–	–	Cn1c(NC(C)(C)C)nc2c(-c3cc4c([nH]3)CNC4=O)cccc2c1=O
22.7 nM	6.2 nM	–	–	Cc1nc2cccc(-c3cc4c([nH]3)CCNC4=O)c2nc1NC(C)(C)C(N)=O
